Legend:
[1] = molecular target: T1, human TLR7 (Homo sapiens, UniProt Q9NYK1); experiment: HEK293-Blue-hTLR-7 cells assay; format: cell-based; conditions: HEK293-Blue-hTLR7 cells, R848 stimulation, 20 hrs, SEAP reporter; read-out: HEK/hTLR7 IC50
T1 construct: host or cells: HEK293 (HEK-Blue hTLR7)
T1 sequence (Q9NYK1 27-1049): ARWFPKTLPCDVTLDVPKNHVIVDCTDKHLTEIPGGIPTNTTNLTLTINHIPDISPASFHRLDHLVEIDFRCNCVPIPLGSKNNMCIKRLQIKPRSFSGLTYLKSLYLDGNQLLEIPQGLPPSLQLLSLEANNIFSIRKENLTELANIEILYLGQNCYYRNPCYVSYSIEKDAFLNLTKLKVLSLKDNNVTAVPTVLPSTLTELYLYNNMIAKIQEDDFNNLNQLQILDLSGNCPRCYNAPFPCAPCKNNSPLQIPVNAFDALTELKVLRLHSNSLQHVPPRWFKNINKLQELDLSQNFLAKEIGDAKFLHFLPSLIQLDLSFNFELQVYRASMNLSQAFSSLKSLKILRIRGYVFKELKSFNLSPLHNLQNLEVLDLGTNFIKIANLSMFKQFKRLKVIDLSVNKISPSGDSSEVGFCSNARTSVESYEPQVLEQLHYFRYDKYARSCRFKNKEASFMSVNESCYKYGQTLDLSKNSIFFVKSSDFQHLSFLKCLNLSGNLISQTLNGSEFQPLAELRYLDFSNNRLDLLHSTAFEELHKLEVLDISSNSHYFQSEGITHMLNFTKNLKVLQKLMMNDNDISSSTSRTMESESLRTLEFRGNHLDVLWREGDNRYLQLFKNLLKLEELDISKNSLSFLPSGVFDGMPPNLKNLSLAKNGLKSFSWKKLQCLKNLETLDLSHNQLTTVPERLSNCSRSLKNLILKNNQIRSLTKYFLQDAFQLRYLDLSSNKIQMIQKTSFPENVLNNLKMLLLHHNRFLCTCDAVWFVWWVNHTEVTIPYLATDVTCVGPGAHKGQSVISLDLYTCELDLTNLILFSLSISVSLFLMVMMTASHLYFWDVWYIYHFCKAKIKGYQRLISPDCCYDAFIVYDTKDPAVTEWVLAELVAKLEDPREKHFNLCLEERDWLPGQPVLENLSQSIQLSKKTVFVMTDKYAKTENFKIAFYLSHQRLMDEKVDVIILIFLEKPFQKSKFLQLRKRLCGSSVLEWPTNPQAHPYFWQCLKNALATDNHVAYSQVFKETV
Excerpt: HEK293-Blue-hTLR-7 cells assay:
A stable HEK293-Blue-hTLR-7 cell line was purchased from InvivoGen (Cat. #: hkb-htlr7, San Diego, Calif., USA). These cells were originally designed for studying the stimulation of human TLR7 by monitoring the activation of NF-κB. A SEAP (secreted embryonic alkaline phosphatase) reporter gene was placed under the control of the IFN-β minimal promoter fused to five NF-κB and AP-1-binding sites. The SEAP was induced by activating NF-κB and AP-1 via stimulating HEK-Blue hTLR7 cells with TLR7 ligands. Therefore the reporter expression was declined by TLR7 antagonist under the stimulation of a ligand, such as R848 (Resiquimod), for incubation of 20 hrs. The cell culture supernatant SEAP reporter activity was determined using QUANTI-Blue™ kit (Cat. #: rep-qb1, Invivogen, San Diego, Ca, USA) at a wavelength of 640 nm, a detection medium that turns purple or blue in the presence of alkaline phosphatase.
HEK293-Blue-hTLR7 cells were incubated at a density of 250,000-450,000 cells/mL in a volume of 170 μL in a 96-well plate in Dulbecco's Modified Eagle's medium (DMEM) containing 4.5 g/L glucose, 50 U/mL penicillin, […], […], 2 mM L-glutamine, 10% (v/v) heat-inactivated fetal bovine serum with addition of 20 μL test compound in a serial dilution in the presence of final DMSO at 1% and 10 μL of 20 uM R848 in above DMEM, perform incubation under 37° C. in a CO2 incubator for 20 hrs. Then 20 μL of the supernatant from each well was incubated with 180 μL Quanti-blue substrate solution at 37° C. for 2 hrs and the absorbance was read at 620˜655 nm using a spectrophotometer. The signaling pathway that TLR7 activation leads to downstream NF-κB activation has been widely accepted, and therefore similar reporter assay was modified for evaluating TLR7 antagonist.

[2] = molecular target: T2, CYP2D6 (Homo sapiens, UniProt P10635); experiment: CYP inhibition assay in human liver microsome; format: in vitro ADME; conditions: human liver microsomes, probe dextromethorphan, dextromethorphan substrate, percentage inhibition <0: not or weak inhibitor, read-out: CYP 2D6 inhibition % @ 10 μM
T2 construct: tissue BD-Gentest 452117; host or cells: human liver microsomes
Experimental: This is a high throughput screening assay used for assessment of reversible inhibition of CYP2D6 activity of test compounds in human liver microsome (HLM) in early discovery stage.
10 mM DMSO stock solutions of test compounds were diluted in DMSO to generate 2 mM intermediate stock solution. 250 nL of intermediate stock solution were transferred in duplicate into 3 separate 384 well microtitre plates (assay-ready plates). A mixture of HLM and each substrate was made up. 45 μL of HLM substrate mix was then transferred to each well of an assay ready plate and mixed. The negative (solvent) and positive control (standard inhibitor for CYP 2D6) were included in each assay ready plate. The assay ready plate was warmed to 37° C. in an incubator over 10 minutes. 5 μL pre-warmed NADPH regenerating system was added to each incubation well to start the reaction. Final incubation volume was 50 μL. The assay plate then was placed back in the 37° C. incubator. After 10 minutes incubation, incubates were quenched by addition of 50 μL 100% acetonitrile containing internal standards (20 ng/mL D3-Dextrorphan). The supernatants were collected for RapidFire/MS/MS analysis.
RapidFire online solid phase extraction/sample injection system (Agilent) coupled with API4000 triple quadrupole mass spectrometer (AB Sciex) were used for sample analysis. The mobile phase composed of acetonitrile and water supplemented with 0.1% formic acid. A C4 solid phase extraction cartridge is used for sample separation. MS detection is achieved in positive ion MRM mode.
Peak areas for substrate, metabolite and internal standard are determined using the RapidFire integrator software (version 3.6.12009.12296). Peak area ratios (PAR) of metabolite and internal standard (stable-labelled metabolite) are then calculated. The measurement window for each experiment is then defined:
PAR (0% activity)=average PAR for all incubations containing concentrated inhibitor;
Par (100% activity)=average PAR for all incubations containing no inhibitor (DMSO controls);
% Activity (test inhibitor)=
[PAR(test inhibitor)−PAR(0% activity)]/[PAR(100% activity)−PAR(0% activity)]; % Inhibition (test inhibitor)=100−% Activity (test inhibitor).

T2 sequence (P10635 whole entry): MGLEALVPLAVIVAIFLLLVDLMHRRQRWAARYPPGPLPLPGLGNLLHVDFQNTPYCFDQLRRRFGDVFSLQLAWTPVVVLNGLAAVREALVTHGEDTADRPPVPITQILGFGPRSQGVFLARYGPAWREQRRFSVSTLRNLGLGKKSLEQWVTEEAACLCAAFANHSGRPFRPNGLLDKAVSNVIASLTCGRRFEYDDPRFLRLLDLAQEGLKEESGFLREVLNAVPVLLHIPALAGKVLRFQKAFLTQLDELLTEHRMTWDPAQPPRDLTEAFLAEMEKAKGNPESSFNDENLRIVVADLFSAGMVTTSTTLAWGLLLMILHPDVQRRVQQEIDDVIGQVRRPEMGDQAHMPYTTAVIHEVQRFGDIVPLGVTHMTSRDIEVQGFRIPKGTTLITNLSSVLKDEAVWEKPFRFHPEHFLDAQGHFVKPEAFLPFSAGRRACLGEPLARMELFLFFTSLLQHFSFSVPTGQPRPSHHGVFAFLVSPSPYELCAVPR

| Compound | IC50 [1] [nM] | inhibition at 10 min, 10 µM [2] [%] |
| --- | --- | --- |
| C[C@@H]1CN(c2ccc(C#N)c3ncccc23)C[C@H](CN2CC(n3cc4c(n3)CN[C@@H](C)C4)C2)O1 (single isomer, unassigned) [Example 29] | 8 | – |
| C[C@@H]1CN(c2ccc(C#N)c3ncccc23)C[C@H](CN2CC(n3cc4c(n3)CNCC4)C2)O1 [Example 4, 5-[(2R,6S)-2-methyl-6-[[3-(4,5,6,7-tetrahydropyrazolo[3,4-c]pyridin-2-yl)azetidin-1-yl]methyl]morpholin-4-yl]quinoline-8-carbonitrile] | 9 | 7.5 |
| CC(C)N1CCc2cn(C3CN(C[C@H]4CN(c5ccc(C#N)c6ncccc56)C[C@@H](C)O4)C3)nc2C1 [Example 9, 5-[(2S,6R)-2-[[3-(6-isopropyl-5,7-dihydro-4H-pyrazolo[3,4-c]pyridin-2-yl)azetidin-1-yl]methyl]-6-methyl-morpholin-4-yl]quinoline-8-carbonitrile] | 12 | 15 |
| C[C@@H]1CN(c2ccc(C#N)c3ncccc23)C[C@H](CN2CC(n3cc4c(n3)CCN[C@@H]4C)C2)O1 [Example 21, 5-[(2R,6S)-2-methyl-6-[[3-[(4R)-4-methyl-4,5,6,7-tetrahydropyrazolo[4,3-c]pyridin-2-yl]azetidin-1-yl]methyl]morpholin-4-yl]quinoline-8-carbonitrile] | 18 | 10.5 |
| CCN1CCc2cn(C3CN(C[C@H]4CN(c5ccc(C#N)c6ncccc56)C[C@@H](C)O4)C3)nc2C1 [Example 7, 5-[(2S,6R)-2-[[3-(6-ethyl-5,7-dihydro-4H-pyrazolo[3,4-c]pyridin-2-yl)azetidin-1-yl]methyl]-6-methyl-morpholin-4-yl]quinoline-8-carbonitrile] | 8 | -19.5 |
| C[C@@H]1CN(c2ccc(C#N)c3ncccc23)C[C@H](CN2CC(n3cc4c(n3)C[C@H](C)NC4)C2)O1 [Example 19, 5-[(2R,6S)-2-methyl-6-[[3-[(6S)-6-methyl-4,5,6,7-tetrahydropyrazolo[4,3-c]pyridin-2-yl]azetidin-1-yl]methyl]morpholin-4-yl]quinoline-8-carbonitrile] | 19 | -2.5 |
| Cc1nn(C2CN(C[C@H]3CN(c4ccc(C#N)c5ncccc45)C[C@@H](C)O3)C2)c2c1CN(C)CC2 [Example 14, 5-[(2S,6R)-2-[[3-(3,5-dimethyl-6,7-dihydro-4H-pyrazolo[4,3-c]pyridin-1-yl)azetidin-1-yl]methyl]-6-methyl-morpholin-4-yl]quinoline-8-carbonitrile] | 26 | – |
| C[C@@H]1CN(c2ccc(C#N)c3ncccc23)C[C@H](CN2CCC(n3ncc4c3CCNC4)CC2)O1 [Example 35, 5-[(2R,6S)-2-methyl-6-[[4-(4,5,6,7-tetrahydropyrazolo[4,3-c]pyridin-1-yl)-1-piperidyl]methyl]morpholin-4-yl]quinoline-8-carbonitrile] | 5 | – |
| C[C@@H]1CN(c2ccc(C#N)c3ncccc23)C[C@H](CN2CC(n3ncc4c3CNC4)C2)O1 [Example 10, 5-[(2S,6R)-2-[[3-(5,6-dihydro-4H-pyrrolo[3,4-c]pyrazol-1-yl)azetidin-1-yl]methyl]-6-methyl-morpholin-4-yl]quinoline-8-carbonitrile] | 16 | – |
| C[C@@H]1CN(c2ccc(C#N)c3ncccc23)C[C@H](CN2CC(n3cc4c(n3)[C@@H](C)NCC4)C2)O1 (single isomer, unassigned) [Example 33] | 7 | – |
| C[C@@H]1CN(c2ccc(C#N)c3ncccc23)C[C@H](CN2CC(n3ncc4c3CCNC4)C2)O1 [Example 1, 5-[(2R,6S)-2-methyl-6-[[3-(4,5,6,7-tetrahydropyrazolo[4,3-c]pyridin-1-yl)azetidin-1-yl]methyl]morpholin-4-yl]quinoline-8-carbonitrile] | 10 | – |
| Cc1c2c(nn1C1CN(C[C@H]3CN(c4ccc(C#N)c5ncccc45)C[C@@H](C)O3)C1)CNCC2 [Example 43, 5-[(2R,6S)-2-methyl-6-[[3-(3-methyl-4,5,6,7-tetrahydropyrazolo[3,4-c]pyridin-2-yl)azetidin-1-yl]methyl]morpholin-4-yl]quinoline-8-carbonitrile] | 17 | – |

Other lines, results leading:

| IC50 [1] [nM] | inhibition at 10 min, 10 µM [2] [%] | Compound |
| --- | --- | --- |
| 4 | – | C[C@@H]1CN(c2ccc(C#N)c3ncccc23)C[C@H](CN2CC(n3cc4c(n3)[C@H](C)CNC4)C2)O1 (single isomer, unassigned) [Example 25] |
| < 3 | -3.5 | C[C@@H]1CN(c2ccc(C#N)c3ncccc23)C[C@H](CN2CC(n3ncc4c3[C@@H](C)NCC4)C2)O1 (single isomer, unassigned) [Example 31] |
| 4 | -1.5 | C[C@@H]1CN(c2ccc(C#N)c3ncccc23)C[C@H](CN2CC(n3cc4c(n3)CN(C)CC4)C2)O1 [Example 5, 5-[(2R,6S)-2-methyl-6-[[3-(6-methyl-5,7-dihydro-4H-pyrazolo[3,4-c]pyridin-2-yl)azetidin-1-yl]methyl]morpholin-4-yl]quinoline-8-carbonitrile] |
| 5 | 0.5 | C[C@@H]1Cc2cnn(C3CN(C[C@H]4CN(c5ccc(C#N)c6ncccc56)C[C@@H](C)O4)C3)c2CN1 (single isomer, unassigned) [Example 28] |
| 4 | – | C[C@@H]1CN(c2ccc(C#N)c3ncccc23)C[C@H](CN2CC(n3cc4c(n3)C(C)(C)CNC4)C2)O1 [Example 24, 5-[(2S,6R)-2-[[3-(7,7-dimethyl-5,6-dihydro-4H-pyrazolo[4,3-c]pyridin-2-yl)azetidin-1-yl]methyl]-6-methyl-morpholin-4-yl]quinoline-8-carbonitrile] |

Source: patent publication US20210300924A1, “5-[6-[[3-(4,5,6,7-TETRAHYDROPYRAZOLO[4,3-C]PYRIDIN-1-YL)AZETIDIN-1-YL]METHYL]MORPHOLIN-4-YL]QUINOLINE-8-CARBONITRILE DERIVATIVES AND SIMILAR COMPOUNDS AS TLR7-9 ANTAGONISTS FOR TREATING SYSTEMIC LUPUS ERYTHEMATOSUS” (Hoffmann-La Roche Inc., priority 2018, published 2021)
